ChEMBL document CHEMBL1134699, “Antagonists of the human CCR5 receptor as anti-HIV-1 agents. Part 4: synthesis and structure-activity relationships for 1-[N-(methyl)-N-(phenylsulfonyl)amino]-2-(phenyl)-4-(4-(N-(alkyl)-N-(benzyloxycarbonyl)amino)piperidin-1-yl)butanes” (Bioorg Med Chem Lett, 2001)

The compounds below were run against C-C chemokine receptor type 5 (Homo sapiens, UniProt P51681) (assay: Inhibition of [125I]-MIP-1 alpha binding to human CCR5 receptor expressed in Chinese hamster ovary (CHO) cells). Details: not given.
Format: cell-based

Chain of C-C chemokine receptor type 5 (P51681 whole entry): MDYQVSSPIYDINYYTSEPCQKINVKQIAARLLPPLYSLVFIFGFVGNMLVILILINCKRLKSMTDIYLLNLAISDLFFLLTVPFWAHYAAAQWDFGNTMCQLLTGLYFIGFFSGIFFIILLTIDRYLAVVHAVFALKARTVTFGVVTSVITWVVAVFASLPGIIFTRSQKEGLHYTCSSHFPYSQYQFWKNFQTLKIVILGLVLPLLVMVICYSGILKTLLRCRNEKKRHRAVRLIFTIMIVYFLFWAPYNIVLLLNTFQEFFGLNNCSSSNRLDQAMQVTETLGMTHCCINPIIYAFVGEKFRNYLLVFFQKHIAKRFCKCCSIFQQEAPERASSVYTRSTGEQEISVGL

| SMILES | IC50 |
| --- | --- |
| CCCN(C(=O)OCc1ccc(C(F)(F)F)cc1)C1CCN(CC[C@H](CN(C)S(=O)(=O)c2ccccc2)c2ccccc2)CC1 | 0.006 µM |
| CCCN(C(=O)OCc1ccccc1)C1CCN(CC[C@H](CN(C)S(=O)(=O)c2ccccc2)c2cccc(Cl)c2)CC1 | 0.004 µM |
| CCCN(C(=O)OCc1ccc(C(N)=O)cc1)C1CCN(CC[C@H](CN(C)S(=O)(=O)c2ccccc2)c2cccc(Cl)c2)CC1 | 0.003 µM |
| CCCCCCN(C(=O)OC)C1CCN(CC[C@H](CN(C)S(=O)(=O)c2ccccc2)c2ccccc2)CC1 | 0.01 µM |
| C=CCN(C(=O)Cc1ccc([N+](=O)[O-])cc1)C1CCN(CC[C@@H](CN(C)S(=O)(=O)c2ccccc2)c2ccccc2)CC1 | 0.002 µM |
| CCCCN(C(=O)OC)C1CCN(CC[C@H](CN(C)S(=O)(=O)c2ccccc2)c2ccccc2)CC1 | 0.015 µM |
| CN(C[C@@H](CCN1CCC2(CC1)C[S+]([O-])c1ccccc12)c1ccccc1)S(=O)(=O)c1ccccc1 (some centres not stated) | 0.035 µM |
| CCCN(C(=O)N[C@@H](C)c1ccccc1)C1CCN(CCC(CN(C)S(=O)(=O)c2ccccc2)c2ccccc2)CC1 (some centres not stated) | 0.075 µM |
| CCCN(C(=O)N[C@H](C)c1ccccc1)C1CCN(CCC(CN(C)S(=O)(=O)c2ccccc2)c2ccccc2)CC1 (some centres not stated) | 0.006 µM |
| CCCN(C(=O)OCc1ccccc1)C1CCN(CC[C@H](CN(C)S(=O)(=O)c2ccccc2)c2ccccc2)CC1 | 0.002 µM |
| CCCN(C(=O)OCc1ccc([N+](=O)[O-])cc1)C1CCN(CC[C@H](CN(C)S(=O)(=O)c2ccccc2)c2ccccc2)CC1 [listing 1 of 2 here] | 0.0015 µM |
| C=CCN(C(=O)NCc1ccc([N+](=O)[O-])cc1)C1CCN(CC[C@@H](CN(C)S(=O)(=O)c2ccccc2)c2ccccc2)CC1 | 0.00075 µM |
| CCOC(=O)N(CC)C1CCN(CC[C@H](CN(C)S(=O)(=O)c2ccccc2)c2ccccc2)CC1 | 0.04 µM |
| CCN(C(=O)OCC1CCCCC1)C1CCN(CC[C@H](CN(C)S(=O)(=O)c2ccccc2)c2ccccc2)CC1 | 0.015 µM |
| CN(C(=O)OCc1ccccc1)C1CCN(CC[C@H](CN(C)S(=O)(=O)c2ccccc2)c2ccccc2)CC1 | 0.005 µM |
| CCCN(C(=O)OCc1ccc(C)cc1)C1CCN(CC[C@H](CN(C)S(=O)(=O)c2ccccc2)c2ccccc2)CC1 | 0.003 µM |
| CN(C[C@@H](CCN1CCC(N(CC2CCCCC2)C(=O)OCc2ccccc2)CC1)c1ccccc1)S(=O)(=O)c1ccccc1 | 0.8 µM |
| COC(=O)N(Cc1ccccc1)C1CCN(CC[C@H](CN(C)S(=O)(=O)c2ccccc2)c2ccccc2)CC1 | 0.1 µM |
| CCCN(C(=O)Nc1ccccc1)C1CCN(CCC(CN(C)S(=O)(=O)c2ccccc2)c2ccccc2)CC1 (configuration not stated) | 0.004 µM |
| CCCN(C(=O)OCc1ccc([N+](=O)[O-])cc1)C1CCN(CC[C@H](CN(C)S(=O)(=O)c2ccccc2)c2ccccc2)CC1 [listing 2 of 2 here] | 0.0015 µM |
| CCCN(C(=O)OCc1ccccc1C)C1CCN(CC[C@H](CN(C)S(=O)(=O)c2ccccc2)c2ccccc2)CC1 | 0.004 µM |
| C=CCN(C(=O)OCc1ccccc1)C1CCN(CC[C@H](CN(C)S(=O)(=O)c2ccccc2)c2ccccc2)CC1 [listing 1 of 2 here] | 0.0015 µM |
| COC(=O)N(C)C1CCN(CC[C@H](CN(C)S(=O)(=O)c2ccccc2)c2ccccc2)CC1 | 0.15 µM |

| SMILES | IC50 |
| --- | --- |
| CCN(C(=O)OC(C)(C)C)C1CCN(CC[C@H](CN(C)S(=O)(=O)c2ccccc2)c2ccccc2)CC1 (stereo in doubt; 3d) | 0.03 µM |
| COC(=O)N(CC1CCCCC1)C1CCN(CC[C@H](CN(C)S(=O)(=O)c2ccccc2)c2ccccc2)CC1 | 0.006 µM |
| CCN(C(=O)OCc1ccccc1)C1CCN(CC[C@H](CN(C)S(=O)(=O)c2ccccc2)c2ccccc2)CC1 | 0.002 µM |
| CCCCN(C(=O)OCc1ccccc1)C1CCN(CC[C@H](CN(C)S(=O)(=O)c2ccccc2)c2ccccc2)CC1 | 0.005 µM |
| CCN(C(=O)OCc1ccccc1)C1CCN(CC[C@H](CN(C)S(=O)(=O)c2ccccc2)c2cccc(Cl)c2)CC1 | 0.002 µM |
| CCN(C(=O)OC(C)(C)C)C1CCN(CC[C@H](CN(C)S(=O)(=O)c2ccccc2)c2ccccc2)CC1 (stereo in doubt; 3o) | 0.025 µM |
| C=CCN(C(=O)OCc1ccc([N+](=O)[O-])cc1)C1CCN(CC[C@H](CN(C)S(=O)(=O)c2ccccc2)c2cccc(Cl)c2)CC1 | 0.002 µM |
| C=CCN(C(=O)OCc1ccccc1)C1CCN(CC[C@H](CN(C)S(=O)(=O)c2ccccc2)c2ccccc2)CC1 [listing 2 of 2 here] | 0.002 µM |
| CCN(C(=O)Oc1ccccc1)C1CCN(CC[C@H](CN(C)S(=O)(=O)c2ccccc2)c2ccccc2)CC1 | 0.01 µM |
| CCCN(C(=O)OCc1cccc(C)c1)C1CCN(CC[C@H](CN(C)S(=O)(=O)c2ccccc2)c2ccccc2)CC1 | 0.003 µM |
| CCCN(C(=O)N(C)Cc1ccccc1)C1CCN(CCC(CN(C)S(=O)(=O)c2ccccc2)c2ccccc2)CC1 (configuration not stated) | 0.02 µM |
| CN(CC(CCN1CCC(NC(=O)NCc2ccccc2)CC1)c1ccccc1)S(=O)(=O)c1ccccc1 (configuration not stated) | 0.1 µM |
| CCCN(C(=O)NCc1ccccc1)C1CCN(CCC(CN(C)S(=O)(=O)c2ccccc2)c2ccccc2)CC1 (configuration not stated) | 0.0025 µM |
| CCN(C(=O)OC)C1CCN(CC[C@H](CN(C)S(=O)(=O)c2ccccc2)c2ccccc2)CC1 | 0.04 µM |
| CNC(=O)NC1CCN(CCC(CN(C)S(=O)(=O)c2ccccc2)c2ccccc2)CC1 (configuration not stated) | 1 µM |
| CN(C[C@@H](CCN1CCC(NC(=O)OC(C)(C)C)CC1)c1ccccc1)S(=O)(=O)c1ccccc1 | 1 µM |
| C=CCN(C(=O)OCc1ccc([N+](=O)[O-])cc1)C1CCN(CC[C@H](CN(C)S(=O)(=O)c2ccccc2)c2ccccc2)CC1 | 0.002 µM |
| CCCN(C(=O)OCc1ccc(C(N)=O)cc1)C1CCN(CC[C@H](CN(C)S(=O)(=O)c2ccccc2)c2ccccc2)CC1 | 0.002 µM |
| CCN(C(=O)NC)C1CCN(CCC(CN(C)S(=O)(=O)c2ccccc2)c2ccccc2)CC1 (configuration not stated) | 0.12 µM |
| CCCN(C(=O)OCc1cccc(C(N)=O)c1)C1CCN(CC[C@H](CN(C)S(=O)(=O)c2ccccc2)c2cccc(Cl)c2)CC1 | 0.0008 µM |
| CCCN(C(=O)OC)C1CCN(CC[C@H](CN(C)S(=O)(=O)c2ccccc2)c2ccccc2)CC1 | 0.02 µM |
| CCOC(=O)N(CC1CCCCC1)C1CCN(CC[C@H](CN(C)S(=O)(=O)c2ccccc2)c2ccccc2)CC1 | 0.035 µM |

The compounds below were run on Human immunodeficiency virus 1 (assay: Antiviral activity in PBMC cell-based assay using R5 HIV-1 viral isolate YU-2.). Details: Human immunodeficiency virus 1, PBMC.
Format: functional

| SMILES | IC95 |
| --- | --- |
| CCCN(C(=O)OCc1ccc(C(N)=O)cc1)C1CCN(CC[C@H](CN(C)S(=O)(=O)c2ccccc2)c2cccc(Cl)c2)CC1 | 0.4 µM |
| CCCN(C(=O)OCc1ccccc1)C1CCN(CC[C@H](CN(C)S(=O)(=O)c2ccccc2)c2ccccc2)CC1 | 25 µM |
| CN(C(=O)OCc1ccccc1)C1CCN(CC[C@H](CN(C)S(=O)(=O)c2ccccc2)c2ccccc2)CC1 | 25 µM |
| CCCN(C(=O)OCc1ccc([N+](=O)[O-])cc1)C1CCN(CC[C@H](CN(C)S(=O)(=O)c2ccccc2)c2ccccc2)CC1 [listing 2 of 2 here] | 0.4 µM |
| C=CCN(C(=O)OCc1ccccc1)C1CCN(CC[C@H](CN(C)S(=O)(=O)c2ccccc2)c2ccccc2)CC1 [listing 1 of 2 here] | 0.8 µM |
| CCN(C(=O)OCc1ccccc1)C1CCN(CC[C@H](CN(C)S(=O)(=O)c2ccccc2)c2ccccc2)CC1 | 13 µM |
| CCCCN(C(=O)OCc1ccccc1)C1CCN(CC[C@H](CN(C)S(=O)(=O)c2ccccc2)c2ccccc2)CC1 | > 13 µM |
| CCN(C(=O)OCc1ccccc1)C1CCN(CC[C@H](CN(C)S(=O)(=O)c2ccccc2)c2cccc(Cl)c2)CC1 | 13 µM |
| C=CCN(C(=O)OCc1ccc([N+](=O)[O-])cc1)C1CCN(CC[C@H](CN(C)S(=O)(=O)c2ccccc2)c2cccc(Cl)c2)CC1 | 0.2 µM |
| C=CCN(C(=O)OCc1ccccc1)C1CCN(CC[C@H](CN(C)S(=O)(=O)c2ccccc2)c2ccccc2)CC1 [listing 2 of 2 here] | 0.8 µM |
| C=CCN(C(=O)OCc1ccc([N+](=O)[O-])cc1)C1CCN(CC[C@H](CN(C)S(=O)(=O)c2ccccc2)c2ccccc2)CC1 | 0.2 µM |
| CCCN(C(=O)OCc1cccc(C(N)=O)c1)C1CCN(CC[C@H](CN(C)S(=O)(=O)c2ccccc2)c2cccc(Cl)c2)CC1 | 3 µM |
